Converted amounts (≈) assume the structure as drawn.
Tests used:
Assay in all cases: ≥ marks a high value that may be exact or a test limit, other limits are often not marked, values filed in µg/mL are converted to µM
[1] = tested on: Staphylococcus epidermidis ATCC 12228
[2] = tested on: Escherichia coli ATCC 25922
[3] = tested on: Pseudomonas aeruginosa ATCC 27853
[4] = tested on: Salmonella enterica subsp. enterica serovar Typhi DMST 22842
[5] = tested on: Staphylococcus aureus ATCC 25923
[6] = tested on: Salmonella typhimurium CCARM 8007
[7] = tested on: Staphylococcus aureus KCTC 1621
[8] = tested on: Pseudomonas aeruginosa KCTC 2513
[9] = tested on: Pseudomonas aeruginosa CCARM 2095
[10] = tested on: Pseudomonas aeruginosa KCTC 2004
[11] = tested on: Acinetobacter baumannii CCARM 12036
[12] = tested on: Acinetobacter baumannii CCARM 12035
[13] = tested on: Pseudomonas aeruginosa CCARM 2003
[14] = tested on: Acinetobacter baumannii CCARM 12005
[15] = tested on: Pseudomonas aeruginosa KCTC 1637
[16] = tested on: Staphylococcus aureus CCARM 3108
[17] = tested on: Staphylococcus aureus KCTC 1916
[18] = tested on: Bacillus subtilis KCTC 1021
[19] = tested on: Staphylococcus aureus CCARM 3126
[20] = tested on: Salmonella typhimurium KCTC 1926
[21] = tested on: Escherichia coli KCTC 1682
[22] = tested on: Escherichia coli CCARM 1229
[23] = tested on: Salmonella typhimurium CCARM 8009
[24] = tested on: Bacillus subtilis KCTC 3068
[25] = tested on: Staphylococcus aureus CCARM 3114
[26] = tested on: Pseudomonas aeruginosa CCARM 2163
[27] = tested on: Staphylococcus aureus KCTC 3881
[28] = tested on: Escherichia coli KCTC 2571
[29] = tested on: Bacillus subtilis KCTC 1022
[30] = tested on: Staphylococcus aureus CCARM 3090
[31] = tested on: Acinetobacter baumannii CCARM 12037
[32] = tested on: Pseudomonas aeruginosa CCARM 2002
[33] = tested on: Salmonella typhimurium CCARM 8003
[34] = tested on: Escherichia coli KCTC 2593
[35] = tested on: Staphylococcus aureus CCARM 3089
[36] = tested on: Staphylococcus epidermidis KCTC 1917
[37] = tested on: Escherichia coli CCARM 1238
[38] = tested on: Xanthomonas axonopodis pv. glycines ISBF 327
[39] = tested on: Staphylococcus aureus ATCC 33591
[40] = tested on: Enterococcus faecium ATCC 700221
[41] = tested on: Candida albicans ATCC 200955

Structure (SMILES) | MIC [2] [µM] | MIC [3] [µM] | MIC [6] [µM] | MIC [7] [µM] | MIC [8] [µM] | MIC [9] [µM] | MIC [10] [µM] | MIC [11] [µM] | MIC [12] [µM] | MIC [13] [µM] | MIC [14] [µM] | MIC [15] [µM] | MIC [16] [µM] | MIC [17] [µM] | MIC [18] [µM] | MIC [19] [µM] | MIC [20] [µM] | MIC [21] [µM] | MIC [22] [µM] | MIC [23] [µM] | other results
CC(C)[C@H](NC(=O)CNC(=O)[C@@H](N)CC(N)=O)C(=O)N[C@@H](CCC(N)=O)C(=O)N1CCC[C@H]1C(=O)N[C@@H](CCCCN)C(=O)N[C@@H](Cc1ccc(O)cc1)C(=O)N[C@@H](CCCN=C(N)N)C(=O)N[C@@H](Cc1c[nH]c2ccccc12)C(=O)N[C@@H](Cc1c[nH]c2ccccc12)C(=O)N[C@@H](CCCN=C(N)N)C(=O)N[C@@H](Cc1c[nH]c2ccccc12)C(=O)N[C@@H](Cc1c[nH]c2ccccc12)C(=O)N[C@@H](CCCN=C(N)N)C(=O)N[C@@H](CCCN=C(N)N)C(=O)N[C@@H](Cc1c[nH]c2ccccc12)C(=O)N[C@@H](Cc1c[nH]c2ccccc12)C(=O)N[C@@H](Cc1c[nH]c2ccccc12)C(=O)N[C@@H](Cc1c[nH]c2ccccc12)C(N)=O [NGVQPKYRWWRWWRRWWWW] | > 31.2 | > 31.2 |  |  |  |  |  |  |  |  |  |  |  |  |  |  |  |  |  |  | MIC [1]: 31.2 µM (≈ 91 µg/mL); MIC [4]: 31.2 µM (≈ 91 µg/mL); MIC [5]: > 31.2 µM
CC[C@H](C)[C@H](NC(=O)CNC(=O)[C@H](CCCN=C(N)N)NC(=O)[C@H](Cc1ccccc1)NC(=O)[C@@H](NC(=O)[C@H](Cc1cnc[nH]1)NC(=O)[C@H](Cc1cnc[nH]1)NC(=O)[C@H](C)NC(=O)[C@@H](N)Cc1ccccc1)[C@@H](C)CC)C(=O)N[C@H](C(=O)N[C@@H](Cc1cnc[nH]1)C(=O)N[C@H](C(=O)NCC(=O)N[C@@H](CCCCN)C(=O)N[C@H](C(=O)N[C@H](C(=O)N[C@@H](Cc1cnc[nH]1)C(=O)N[C@@H](CCCN=C(N)N)C(=O)N[C@@H](CC(C)C)C(=O)N[C@H](C(=O)N[C@H](C(=O)NCC(=O)O)[C@@H](C)O)C(C)C)[C@@H](C)CC)[C@@H](C)O)C(C)C)C(C)C [FAHHIFRGIVHVGKTIHRLVTG] |  |  | 16 (≈ 39.9 µg/mL) | 4 (≈ 9.98 µg/mL) | 8 (≈ 20 µg/mL) | 4 (≈ 9.98 µg/mL) | 8 (≈ 20 µg/mL) | 4 (≈ 9.98 µg/mL) | 4 (≈ 9.98 µg/mL) | 4 (≈ 9.98 µg/mL) | 4 (≈ 9.98 µg/mL) | 4 (≈ 9.98 µg/mL) | 16 (≈ 39.9 µg/mL) | 1 (≈ 2.5 µg/mL) | 8 (≈ 20 µg/mL) | 16 (≈ 39.9 µg/mL) | 16 (≈ 39.9 µg/mL) | 2 (≈ 4.99 µg/mL) | 16 (≈ 39.9 µg/mL) | 16 (≈ 39.9 µg/mL) | MIC [24]: 4 µM (≈ 9.98 µg/mL); MIC [25]: 16 µM (≈ 39.9 µg/mL); MIC [26]: 4 µM (≈ 9.98 µg/mL); MIC [27]: 2 µM (≈ 4.99 µg/mL); MIC [28]: 2 µM (≈ 4.99 µg/mL); MIC [29]: 1 µM (≈ 2.5 µg/mL); MIC [30]: 16 µM (≈ 39.9 µg/mL); MIC [31]: 4 µM (≈ 9.98 µg/mL); MIC [32]: 4 µM (≈ 9.98 µg/mL); MIC [33]: ≥ 32 µM; MIC [34]: 2 µM (≈ 4.99 µg/mL); MIC [35]: 16 µM (≈ 39.9 µg/mL); MIC [36]: 2 µM (≈ 4.99 µg/mL); MIC [37]: 16 µM (≈ 39.9 µg/mL)
CSCC[C@H](NC(=O)[C@H](Cc1ccccc1)NC(=O)CNC(=O)[C@H](Cc1ccccc1)NC(=O)[C@H](C)NC(=O)[C@H](CCCN=C(N)N)NC(=O)[C@H](CC(N)=O)NC(=O)[C@H](Cc1ccccc1)NC(=O)[C@H](CC(=O)O)NC(=O)[C@H](CCCCN)NC(=O)[C@H](Cc1ccccc1)NC(=O)[C@H](Cc1cnc[nH]1)NC(=O)[C@H](Cc1ccccc1)NC(=O)[C@H](CCC(N)=O)NC(=O)[C@H](CCCCN)NC(=O)[C@@H](N)Cc1ccccc1)C(=O)N[C@H](C(=O)N[C@@H](CCCN=C(N)N)C(=O)N[C@H](C(=O)N[C@@H](C)C(=O)N[C@@H](CC(C)C)C(=O)N[C@@H](CCC(N)=O)C(=O)N[C@@H](C)C(=O)N[C@@H](CCC(=O)O)C(=O)N[C@@H](CCCCN)C(=O)N[C@@H](CC(C)C)C(N)=O)C(C)C)[C@@H](C)O [FKQFHFKDFNRAFGFMTRVALQAEKL] | 40 (≈ 127 µg/mL) | 80 (≈ 254 µg/mL) |  |  |  |  |  |  |  |  |  |  |  |  |  |  |  |  |  |  | MIC [38]: ≥ 40 µM
CC[C@H](C)[C@H](NC(=O)[C@H](Cc1ccccc1)NC(=O)[C@H](CCCCN)NC(=O)[C@H](CC(C)C)NC(=O)[C@H](CC(C)C)NC(=O)CN)C(=O)N[C@@H](CCCCN)C(=O)N[C@@H](Cc1c[nH]c2ccccc12)C(=O)N[C@@H](CC(C)C)C(=O)N[C@@H](CC(C)C)C(N)=O [GLLKFIKWLL] | 22.1 (≈ 27.2 µg/mL) | 256 (≈ 315 µg/mL) |  |  |  |  |  |  |  |  |  |  |  |  |  |  |  |  |  |  | MIC [39]: 7.4 µM (≈ 9.1 µg/mL); MIC [40]: 0.8 µM (≈ 0.984 µg/mL); MIC [41]: ≥ 47.4 µM
CC[C@H](C)[C@H](NC(=O)CNC(=O)[C@H](CCCN=C(N)N)NC(=O)[C@H](Cc1ccccc1)NC(=O)[C@@H](NC(=O)[C@H](Cc1cnc[nH]1)NC(=O)[C@H](Cc1cnc[nH]1)NC(=O)[C@H](CCCCN)NC(=O)[C@@H](N)Cc1ccccc1)[C@@H](C)CC)C(=O)N[C@@H](CCCCN)C(=O)N[C@@H](Cc1cnc[nH]1)C(=O)N[C@H](C(=O)NCC(=O)N[C@@H](CCCCN)C(=O)N[C@H](C(=O)N[C@H](C(=O)N[C@@H](Cc1cnc[nH]1)C(=O)N[C@@H](CCCN=C(N)N)C(=O)N[C@@H](CC(C)C)C(=O)N[C@H](C(=O)N[C@H](C(=O)NCC(=O)O)[C@@H](C)O)C(C)C)[C@@H](C)CC)[C@@H](C)O)C(C)C [FKHHIFRGIKHVGKTIHRLVTG] |  |  | 8 (≈ 20.7 µg/mL) | 2 (≈ 5.16 µg/mL) | 8 (≈ 20.7 µg/mL) | 2 (≈ 5.16 µg/mL) | 8 (≈ 20.7 µg/mL) | 2 (≈ 5.16 µg/mL) | 2 (≈ 5.16 µg/mL) | 2 (≈ 5.16 µg/mL) | 2 (≈ 5.16 µg/mL) | 1 (≈ 2.58 µg/mL) | 8 (≈ 20.7 µg/mL) | 4 (≈ 10.3 µg/mL) | 8 (≈ 20.7 µg/mL) | 8 (≈ 20.7 µg/mL) | 2 (≈ 5.16 µg/mL) | 1 (≈ 2.58 µg/mL) | 8 (≈ 20.7 µg/mL) | 8 (≈ 20.7 µg/mL) | MIC [24]: 2 µM (≈ 5.16 µg/mL); MIC [25]: 8 µM (≈ 20.7 µg/mL); MIC [26]: 2 µM (≈ 5.16 µg/mL); MIC [27]: 4 µM (≈ 10.3 µg/mL); MIC [28]: 4 µM (≈ 10.3 µg/mL); MIC [29]: 4 µM (≈ 10.3 µg/mL); MIC [30]: 8 µM (≈ 20.7 µg/mL); MIC [31]: 2 µM (≈ 5.16 µg/mL); MIC [32]: 2 µM (≈ 5.16 µg/mL); MIC [33]: 16 µM (≈ 41.3 µg/mL); MIC [34]: 4 µM (≈ 10.3 µg/mL); MIC [35]: 8 µM (≈ 20.7 µg/mL); MIC [36]: 4 µM (≈ 10.3 µg/mL); MIC [37]: 8 µM (≈ 20.7 µg/mL)
CC[C@H](C)[C@H](NC(=O)[C@H](CCCCN)NC(=O)[C@H](CCCCN)NC(=O)[C@H](CC(C)C)NC(=O)[C@H](CC(C)C)NC(=O)CN)C(=O)N[C@@H](CCCCN)C(=O)N[C@@H](Cc1c[nH]c2ccccc12)C(=O)N[C@@H](CC(C)C)C(=O)N[C@@H](CC(C)C)C(N)=O [GLLKKIKWLL] | 12.5 (≈ 15.1 µg/mL) | 28.4 (≈ 34.4 µg/mL) |  |  |  |  |  |  |  |  |  |  |  |  |  |  |  |  |  |  | MIC [39]: 28.4 µM (≈ 34.4 µg/mL); MIC [40]: 22.1 µM (≈ 26.8 µg/mL); MIC [41]: ≥ 47.4 µM

Reference: DBAASP
